Experimental data reported in BindingDB's records for doi:10.1021/jm00161a009 (1986).

Target: T1, Carnitine palmitoyl transferase I liver isoform (Sus scrofa, UniProt Q9MYX2)
T1 sequence (Q9MYX2 whole entry): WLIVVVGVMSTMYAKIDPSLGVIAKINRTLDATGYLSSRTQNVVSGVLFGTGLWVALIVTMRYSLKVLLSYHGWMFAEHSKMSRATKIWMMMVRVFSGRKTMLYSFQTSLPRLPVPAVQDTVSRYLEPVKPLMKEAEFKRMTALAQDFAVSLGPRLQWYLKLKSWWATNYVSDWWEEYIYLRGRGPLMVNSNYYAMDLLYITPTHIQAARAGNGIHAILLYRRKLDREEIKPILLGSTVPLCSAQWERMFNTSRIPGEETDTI
Assay: ChEBML_44012
Method: Compound was tested for its inhibitory activity against carnitine palmitoyl transferase-A (CPT-A)

Row | SMILES | IC50 [nM]
1 | CCCCCCCCCCCCCCC1(C(=O)OC)CO1 (racemic) [2-Tetradecyl-oxirane-2-carboxylic acid methyl ester] | 300
2 | CCCCCCCCCCCCCCC1(C(=O)O)CO1 (stereo not drawn) [(+/-)2-Tetradecyl-oxirane-2-carboxylic acid] | 900
3 | CCCCCCCCCCCC1(C(=O)OC)CO1 (configuration not stated) [2-Undecyl-oxirane-2-carboxylic acid methyl ester] | 1160
4 | CCCCCCCCCCCCC1(C(=O)OC)CO1 (configuration not stated) [2-Dodecyl-oxirane-2-carboxylic acid methyl ester] | 600
5 | CCCCCCC1(C(=O)OC)CO1 (configuration not stated) [2-Hexyl-oxirane-2-carboxylic acid methyl ester] | 136000
6 | CCCCCCCCCCC1(C(=O)OC)CO1 (configuration not stated) [2-Decyl-oxirane-2-carboxylic acid methyl ester] | 680
7 | CCCCCCCCCCCCCC1(C(=O)OC)CO1 (configuration not stated) [2-Tridecyl-oxirane-2-carboxylic acid methyl ester] | 500
